Values quoted from earlier work in patent publication US12187997B2, “Integrated human organ-on-chip microphysiological systems” (President and Fellows of Harvard College, priority 2011, dated 2025).
“Also recorded” adds a separate entry of the source.

What was measured:
[1] = for Organ Toxicity: Table 1
[2] = for Clearence Mechanism (for PK): Table 1
[3] = relieving dyspnea in heart failure patients

Compound	toxicity in humans / in vivo [1]	Organ Toxicity [1]	Clearence Mechanism (for PK) [2]	metabolism and elimination [2]	clinical efficacy [3]
Cc1nnc(SCC2=C(C(=O)O)N3C(=O)[C@@H](NC(=O)Cn4cnnn4)[C@H]3SC2)s1 [Cefazolin]	produces pulmonary blood clots and nephrotoxicity	Lung, Kidney	–	–	–
COCc1c(C(C)C)nc(C(C)C)c(/C=C/[C@@H](O)C[C@@H](O)CC(=O)O)c1-c1ccc(F)cc1 [Cerivastatin]	major toxicities in vivo (rhabdylomysis) and liver toxicity	Skeletal; also recorded: muscle,; also recorded: Kidney, Liver	Liver	–	–
N.N.[Cl][Pt][Cl] [Cisplatin]	–	–	Renal	–	–
Nc1ccn([C@H]2C[C@H](O)[C@@H](COP(=O)(O)OP(=O)(O)OP(=O)(O)OP(=O)(O)OC[C@H]3O[C@@H](n4ccc(=O)[nH]c4=O)[C@H](O)[C@@H]3O)O2)c(=O)n1 [Denufosol]	–	–	Aerosol	–	–
COc1cccc2c1C(=O)c1c(O)c3c(c(O)c1C2=O)C[C@@](O)(C(=O)CO)C[C@@H]3O[C@H]1C[C@H](N)[C@H](O)[C@H](C)O1 [Doxorubicin]	–	Heart, gut, and bone marrow, and skin	Liver, Renal	–	–
CC(C)NCC(O)c1ccc(O)c(O)c1 (centres unmarked) [Isoproterenol]	–	Heart	Renal	primarily metabolized and excreted by the kidney in humans	–
CC(=O)N1CCN(c2ccc(OCC3COC(Cn4ccnc4)(c4ccc(Cl)cc4Cl)O3)cc2)CC1 (centres unmarked) [Ketoconazole]	–	Liver DDI, tests	Liver	–	–
Cc1ccc2c(c1)c1c(n2CCc2ccc(C)nc2)CCN(C)C1 [Latrepirdine]	–	–	(Crosses BBB)	–	–
CCOC(=O)C1=C[C@@H](OC(CC)CC)[C@H](NC(C)=O)[C@@H](N)C1 [Tamiflu]	–	children <1 yr	Liver; Renal	–	–
CC(C)(C)c1ccc(C(O)CCCN2CCC(C(O)(c3ccccc3)c3ccccc3)CC2)cc1 (centres unmarked) [Terfenadine]	cardiotoxic at higher doses in humans	Heart; also recorded: arrhythmia	–	–	–
Cc1c(C)c2c(c(C)c1O)CCC(C)(COc1ccc(CC3SC(=O)NC3=O)cc1)O2 (centres unmarked) [Troglitazone]	–	Liver	Liver	–	–
COc1ccc(C(=O)N2CCN(c3ccc4c(c3)CCC(=O)N4)CC2)cc1OC [Vesnarinone]	–	Heart	Liver	–	–
Nesiritide	–	–	Proteolysis,; also recorded: Renal	primarily eliminated by the kidney	failed a large clinical trial for efficacy
